Assays:
C. formosanus = test: ARS bait matrix bioassay with NHA sodium salt, protocol of Example 1 (Example 2); format: in vivo, Coptotermes formosanus; details: concentrations greater than 500 and up to 1500 ppm; also effective
Method: For bait matrices with a final concentrations of NHA sodium salt of either 250 ppm or 500 ppm, the following procedure was used. A total of 25 mg or 50 mg, respectively of the NHA sodium salt was weighed using a Mettler balance. The NHA sodium salt complex was placed into a 50 ml sterile screw cap conical tube (#62.547.004; Sarstedt, Newton, N.C.) and dissolved with 40 ml nutritive solution described in Example 2 of U.S. patent application Ser. No. 09/294,499 filed Apr. 20, 1999, hereby incorporated by reference. Under a laminar flow hood, this product was mixed with 27 ml more of sterile nutritional supplement in a 250 ml sterile glass bottle (prepared as reported by M. G. Rojas and J. A. Morales-Ramos, April 2001, “Bait matrix for delivery of chitin synthesis inhibitors to the Formosan subterranean termite [Isoptera: Rhinotermitidae],” J. Econ. Entomol. 94(2) :506-510) hereby incorporated by reference. The bottle was tightly closed with a screw cap and manually shaken for 2 minutes. The mixture was added to 33 g of sterile cellulose as reported by Rojas and Morales-Ramos (2001) supra. The mixture was manually homogenized using a stainless steel spatula. To encase the bait matrix, tubes made of fibrous casing material (#124B; L.E.M. Products, Inc., Miamitown, Ohio) were cut into 150 mm long portions as reported by Rojas and Morales-Ramos (2001) supra. Fifty grams of bait matrix containing NHA sodium salt was compacted into one end of the inlet tube, and the open end and of the inlet tube was closed with a rubber band. The bait casing was placed inside of the foraging box adjacent to a 10 g piece of pine wood, taking care that it was partially covered with sand. Control bait matrix was prepared minus NHA, and presented in the same way as the treatment matrix to Formosan termites taken from three different colonies, with two boxes per locality totaling six boxes of 2500 termites per treatment. (Rojas and Morales-Ramos [2001] supra). All the experimental boxes were maintained under dark conditions at 27±1° C., and 90±2% relative humidity. Observations were done every 72 hours until all the termites died. The time to reach 100% mortality was measured and recorded. Mean comparisons among treatments and control were conducted.
N-hydroxynaphthyalimide (NHA) which is commercially available as pure chemical, is dissolved in distilled water using a sterile container; At concentrations of 500 ppm, NHA is effective as bait active ingredient taking a mean time to kill C. formosanus in 2½ months in lab conditions. […]

[1] = test system: Formosan subterranean termite; test: Field test of NHA pressure treated aspen wood in bait stations, New Orleans; format: in vivo, Coptotermes formosanus
Source text: NHA as a wood preservative has been extensively studied (F. Green III, T. A. Kuster, L. Ferge, and T. L. Highley, 1997. Protection of southern pine from fungal decay and termite damage with N,N-Naphthaloylhydroxylamine. Inter. Biodeter. and Biodeg. 39(2-3):103-111; D. M. Crawford and F. Green III, 1999. Protection of southern pine using N,N-Naphthaloylhydroxylamine: Field tests, soft-rot cellars and aquatic bioassay leach testing. Internat. Res. Group on Wood Preserv. Doc. No: IRG/WP 99-30204). Monitoring termite activity in baiting systems is conducted by the use of wooden interceptors constructed from out of aspen, southern yellow pine, white or yellow poplar. In humid environments such as the Southeastern United States, a problem with degradations of such interceptors by fungi frequently occurs. We have noticed that low concentrations of NHA from 200 to 1000 ppm is acceptable to retard fungal growth without presenting any deleterious effect in the termites when incorporated into wooden materials. For bait efficacy, when the chemical is impregnated on pieces of wood the concentration that is retained varies as well as the efficacy. […]

O=C1c2cccc3cccc(c23)C(=O)N1O [NHA, N-hydroxynaphthalimide]
mean killing times versus 500 ppm (C. formosanus): not significantly different | optimal NHA concentration after field testing [1]: 500 ppm

Reference: USRE44543E1, “Naphthalenic compounds as termite bait toxicants” (priority 2002, dated 2013)
